{"source": "patent US9883671B2", "about": "“Mixture of natural or nature-identical alcohols with improved effectiveness” (L'AIR LIQUIDE, SOCIETE ANONYME POUR L'ETUDE ET …, priority 2012, dated 2018)", "system": "inoculation solution of test organisms: Staphylococcus aureus, Kocuria rhizophila, Enterobacter gergoviae, Escherichia coli, Klebsiella pneumoniae, Pseudomonas …", "test": "Determination of the preserving effect of chemical preservatives in cosmetic formulations (Koko test), Carbopol gel", "assay_type": "cell-based, bacteria, yeast and moulds (mixed inoculum, ATCC strains)", "conditions": "0.1% by weight; inferred from Experiment 9 compared with Experiment 2", "description": "Method A—Determination of the Preserving Effect of Chemical Preservatives in Cosmetic Formulations (Koko Test) The test described below is carried out to determine the preserving effect of chemical preservatives in cosmetic formulations. Using the described method, the aim is to test the effectiveness of chemical preservatives with regard to the pack preservation for cosmetic formulations. For this purpose, the preservatives to be tested are added in various concentrations to the unpreserved samples in different experimental batches. A continuous microbial burden is achieved by periodically inoculating the experimental batches. In parallel to the inoculation, streaks of the individual batches are in each case made immediately beforehand. Assessment is made by reference to the microbial growth of the streaks. […] In each case, 25 g of the cosmetic to be tested are weighed into wide-necked bottles with screw closure (LDPE). […] The preserving effect of the individual product concentrations is assessed in a semi-quantitative method by means of the growth of the individual streaks. […] The sample is well-preserved according to criterion A if it exists under the laboratory conditions given above for a period of six weeks without microbial attack of the sample batches, i.e. no microbial growth can be detected even after the sixth inoculation. […]"}
{"smiles": "CCCCCCCCCCCO", "note": "[Experiment 1-undecanol, 1-undecanol]", "values": [{"measurement": "Preserving effect of the substance by itself, inferred", "result": "no effect"}]}
